The values below come from patent EP1923473B1, “Bis-diglycolamides (BISDGA) as new extractants for lanthanides [Ln(III)] and actinides [An(III)] from aqueous high-level wastes” (Universidad Autónoma de Madrid, priority 2006, dated 2008).

A short description of this data set: Hydrolytic stability. It counts as physicochemical. The note with it: 0.1 mol/L in n-dodecane/1-octanol (95:5)%vol; permanent contact with 3 mol/L nitric acid. On the procedure:
The organic solutions of the compounds to be tested were prepared and equilibrated with 3 mol/L nitric acid, as has been indicated in sections A) and B).
Then, 700 µL of the equilibrated organic phase were put in vials of an approximate volume of 2 mL and were contacted with 700 µL of 3 mol/L nitric acid. They were stirred vigorously in an oscillating shaker for periods of 7, 15, 24, 36, 42, 50 and 66 days. After each permanent contact period with the nitric acid aqueous phase, the extraction capability of the organic solution was evaluated, taking 600 µL of the corresponding organic phase and contacting it with 600 µL of aqueous phase formed by a 3 mol/L nitric acid solution spiked with 600 Bq of ^152Eu and with 600 Bq of ^241Am. It was stirred vigorously by means of an oscillating shaker for 15 minutes. The separation of the phases was carried out by centrifugation at 5000 rpm. 400 µL of each of the phases were taken for the determination of the concentration of ^152Eu and ^241Am, as in section C).
After the permanent contact periods with the 3 mol/L nitric acid solution, the extraction capability of the organic solutions of both compounds was evaluated with 3 mol/L nitric acid solutions containing 600 Bq of ^152 Eu and 600 Bq of ^241Am.

Take “2-Dioctylcarbamoylmethoxy-N-[3-[(2-dioctylcarbamoyl-methoxy-acetylamino)methyl]benzyl]acetamide [Compound 4]”: the stability against hydrolysis result is “very stable against hydrolysis”.

Consider “2-Dioctylcarbamoylmethoxy-N-[3-[3-(2-dioctylcarbamoyl-methoxyacetylamino)propoxy]propyl]acetamide [Compound 18]”, for which the stability against hydrolysis entry is recorded as “very stable against hydrolysis”.
